From patent publication US9393221B2, “Methods and compounds for reducing intracellular lipid storage” (THE GENERAL HOSPITAL CORPORATION, priority 2011, dated 2016)
Where a name gives a salt, the structure may show the parent alone.
For Z-score in this document: test concentration or dose not given here.

What follows are compounds tested on ATGL-KO iPSCs (assay: High throughput iPSC chemical screening, Oil Red O (ORO) lipid accumulation). Details: not given.
Type: cell-based, mouse
Compound COc1cc2c(c(OC)c1OC)-c1ccc(OC)c(=O)cc1[C@@H](NC(C)=O)CC2 [Colchicine] has a Z-score of 35.6417.

Same assay, conditions: glycolytic switch compounds
In the case of CN(C)CC/C=C1/c2ccccc2Sc2ccc(Cl)cc21 [Chlorprothixene hydrochloride], the “Rank in normalized ORO score from screen” value is reported as 223.
In the case of O=C1C=CC(=O)c2c1ccc1c2ccc2ccccc21 [Chrysene-1,4-quinone], the “Rank in normalized ORO score from screen” value is reported as 133.
For C(=C\c1ccccc1)/CN1CCN(C(c2ccccc2)c2ccccc2)CC1 [Cinnarizine], the “Rank in normalized ORO score from screen” value was 44.
In the case of CN1CCC[C@@H]1CCO[C@](C)(c1ccccc1)c1ccc(Cl)cc1 [Clemastine fumarate], the “Rank in normalized ORO score from screen” value is reported as 197.
In the case of CCN(CC)CCOc1ccc(C(=C(Cl)c2ccccc2)c2ccccc2)cc1.O=C(O)CC(O)(CC(=O)O)C(=O)O [Clomiphene citrate (Z,E), reference compound], the “Rank in normalized ORO score from screen” value is reported as 928.
With Clc1ccc(C(OCCN2CCCCC2)c2ccccc2)cc1 (stereo not drawn) [Cloperastine hydrochloride] the “Rank in normalized ORO score from screen” value was 863.
For Clc1ccccc1C(c1ccccc1)(c1ccccc1)n1ccnc1 [Clotrimazole], the “Rank in normalized ORO score from screen” value was 37.
In the case of CN(C)CCC=C1c2ccccc2C=Cc2ccccc21 [Cyclobenzaprine hydrochloride], the “Rank in normalized ORO score from screen” value is reported as 579.

Same assay, conditions: normalized ORO level vs DMSO-treated cells; compound present during 7 days differentiation, 96-well; negative = decrease in lipid accumulation
With CN(C)CCCN1c2ccccc2Sc2ccc(Cl)cc21 [Chlorpromazine hydrochloride] the Z-score was −0.5417.
For CCCNC(=O)NS(=O)(=O)c1ccc(Cl)cc1 [Chlorpropamide], the Z-score was 0.199.
In the case of CN(C)CC/C=C1/c2ccccc2Sc2ccc(Cl)cc21 [Chlorprothixene hydrochloride], the Z-score is reported as −0.9824.
CN(C)[C@@H]1C(O)=C(C(N)=O)C(=O)[C@@]2(O)C(O)=C3C(=O)c4c(O)ccc(Cl)c4[C@@](C)(O)[C@H]3C[C@@H]12 [Chlortetracycline hydrochloride] was tested, and the Z-score was −0.5479.
Work on NS(=O)(=O)c1cc(C2(O)NC(=O)c3ccccc32)ccc1Cl (stereo not drawn) [Chlorthalidone] yielded a Z-score of −0.3195.
C=C1CC[C@H](O)C/C1=C/C=C1\CCC[C@]2(C)[C@@H]([C@H](C)CCCC(C)C)CC[C@@H]12 [Cholecalciferol] was tested, and the Z-score was 0.4701.
O=C1C=CC(=O)c2c1ccc1c2ccc2ccccc21 [Chrysene-1,4-quinone] was tested, and the Z-score was −1.1808.
O=c1cc(-c2ccccc2)oc2cc(O)cc(O)c12 [Chrysin] gave a Z-score of −0.7142.
In the case of Cc1cc(C2CCCCC2)n(O)c(=O)c1.NCCO [Ciclopirox ethanolamine], the Z-score is reported as 40.334.
Work on CN/C(=N/CCSCc1nc[nH]c1C)NC#N [Cimetidine] yielded a Z-score of −0.2141.
C=C[C@H]1C[N@@]2CC[C@H]1C[C@@H]2[C@@H](O)c1ccnc2ccccc12 [Cinchonine] was tested, and the Z-score was −1.1697.
For C(=C\c1ccccc1)/CN1CCN(C(c2ccccc2)c2ccccc2)CC1 [Cinnarizine], the Z-score was −1.6064.
For CCn1nc(C(=O)O)c(=O)c2cc3c(cc21)OCO3 [Cinoxacin], the Z-score was 0.8009.
CC(C)(Oc1ccc(C2CC2(Cl)Cl)cc1)C(=O)O (stereo not drawn) [Ciprofibrate] gave a Z-score of −0.5993.
O=C(O)c1cn(C2CC2)c2cc(N3CCNCC3)c(F)cc2c1=O [Ciprofloxacin hydrochloride] gave a Z-score of −1.3212.
COc1cc(N)c(Cl)cc1C(=O)NC1CCN(CCCOc2ccc(F)cc2)CC1OC (stereo not drawn) [Cisapride] showed a Z-score of 0.02062.
Work on CN(C)CCCC1(c2ccc(F)cc2)OCc2cc(C#N)ccc21 (stereo not drawn) [Citalopram Hydrobromide] yielded a Z-score of 0.03052.
Compound COc1cc(N)c(Cl)cc1C(=O)NC1CCN(Cc2ccccc2)CC1 [Clebopride maleate] has a Z-score of −0.108.
Compound CN1CCC[C@@H]1CCO[C@](C)(c1ccccc1)c1ccc(Cl)cc1 [Clemastine fumarate] has a Z-score of −1.0269.
Clc1ccc(Cn2c(CN3CCCC3)nc3ccccc32)cc1 [Clemizole hydrochloride] gave a Z-score of −0.5701.
Compound CC(C)(C)NCC(O)c1cc(Cl)c(N)c(Cl)c1 (stereo not drawn) [Clenbuterol hydrochloride] has a Z-score of 0.2391.
Compound C[N+]12CCC(CC1)C(OC(=O)C(O)(c1ccccc1)c1ccccc1)C2 (stereo not drawn) [Clidinium bromide, reference compound] has a Z-score of −1.8548.
Work on Oc1c(I)cc(Cl)c2cccnc12 [Clioquinol] yielded a Z-score of −1.5195.
Work on CCC(=O)O[C@]1(C(=O)CCl)[C@@H](C)C[C@H]2[C@@H]3CCC4=CC(=O)C=C[C@]4(C)[C@@]3(F)[C@@H](O)C[C@@]21C [Clobetasol propionate] yielded a Z-score of 2.1955.
In the case of C[C@@H]1C[C@H]2[C@@H]3C[C@H](F)C4=CC(=O)C=C[C@]4(C)[C@@]3(Cl)[C@@H](O)C[C@]2(C)[C@H]1C(=O)COC(=O)C(C)(C)C [Clocortolone pivalate], the Z-score is reported as 1.217.
CC(C)/N=c1\cc2n(-c3ccc(Cl)cc3)c3ccccc3nc-2cc1Nc1ccc(Cl)cc1 [Clofazimine] gave a Z-score of −0.5584.
CC(C)(Oc1ccc(Cl)cc1)C(=O)O [Clofibric acid] showed a Z-score of 2.297.
CCN(CC)CCOc1ccc(C(=C(Cl)c2ccccc2)c2ccccc2)cc1.O=C(O)CC(O)(CC(=O)O)C(=O)O [Clomiphene citrate (Z,E), reference compound] gave a Z-score of 1.107.
Compound Clc1cccc(Cl)c1N=C1NCCN1 [Clonidine hydrochloride] has a Z-score of 0.04408.
Compound C[C@@H]1CCC[C@H](C)N1NC(=O)c1ccc(Cl)c(S(N)(=O)=O)c1 [Clopamide] has a Z-score of −0.9945.
Work on Clc1ccc(C(OCCN2CCCCC2)c2ccccc2)cc1 (stereo not drawn) [Cloperastine hydrochloride] yielded a Z-score of 0.7661.
C#CCN(C)CCCOc1ccc(Cl)cc1Cl [Clorgyline hydrochloride] gave a Z-score of −0.8658.
Work on Nc1cc(C(Cl)=C(Cl)Cl)c(S(N)(=O)=O)cc1S(N)(=O)=O [Clorsulon] yielded a Z-score of −0.1576.
Clc1ccccc1C(c1ccccc1)(c1ccccc1)n1ccnc1 [Clotrimazole] gave a Z-score of −1.6708.
Cc1onc(-c2ccccc2Cl)c1C(=O)N[C@@H]1C(=O)N2[C@@H]1SC(C)(C)[C@@H]2C(=O)O [Cloxacillin sodium salt] was tested, and the Z-score was −1.0101.
CN1CCN(C2=Nc3cc(Cl)ccc3Nc3ccccc32)CC1 [Clozapine] was tested, and the Z-score was 0.4154.
CCN1C[C@]2(COC)CC[C@H](O)[C@@]34C5C[C@@H]6[C@@H](OC)C[C@](O)(C(CC23)C14)C5[C@H]6OC(C)=O (stereo partly drawn) [Condelphine] gave a Z-score of 0.3143.
With COc1ccc(C(=O)OC2C[C@H]3CC[C@@H](C2)N3C)cc1OC.Cl (stereo partly drawn) [Convolamine hydrochloride] the Z-score was −1.0829.
In the case of COc1cc2cc3c4cc(OC)c(OC)cc4cc[n+]3c(C)c2cc1OC.O.[Cl-] [Coralyne chloride hydrate], the Z-score is reported as 7.275.
Work on C[C@]12C[C@H](O)[C@H]3[C@@H](CCC4=CC(=O)CC[C@@]43C)[C@@H]1CC[C@@H]2C(=O)CO [Corticosterone] yielded a Z-score of −1.2709.
Compound C[C@]12CCC(=O)C=C1CC[C@@H]1[C@@H]2C(=O)C[C@@]2(C)[C@H]1CC[C@]2(O)C(=O)CO [Cortisone] has a Z-score of −1.8033.
COC(=O)[C@H]1[C@H]2C[C@H]3c4[nH]c5ccccc5c4CCN3C[C@@H]2CC[C@@H]1O.Cl [Corynanthine hydrochloride] was tested, and the Z-score was −0.2498.
For O=C(O)c1cc(=O)c2c(OCC(O)COc3cccc4oc(C(=O)O)cc(=O)c34)cccc2o1 [Cromolyn disodium salt], the Z-score was −1.7273.
In the case of CC=CC(=O)N(CC)c1ccccc1C [Crotamiton], the Z-score is reported as 2.886.
CC1(C)S[C@@H]2[C@H](NC(=O)C3(N)CCCCC3)C(=O)N2[C@H]1C(=O)O [Cyclacillin] was tested, and the Z-score was 2.402.
With CN1CCN(C(c2ccccc2)c2ccccc2)CC1 [Cyclizine hydrochloride] the Z-score was −0.9231.
CN(C)CCC=C1c2ccccc2C=Cc2ccccc21 [Cyclobenzaprine hydrochloride] was tested, and the Z-score was −0.1421.
C[C@@H]1C[C@@H]([C@H](O)CC2CC(=O)NC(=O)C2)C(=O)[C@@H](C)C1 [Cycloheximide] was tested, and the Z-score was 56.1385.
In the case of NS(=O)(=O)c1cc2c(cc1Cl)NC(CC1CCCC1)NS2(=O)=O (stereo not drawn) [Cyclopenthiazide], the Z-score is reported as −1.4107.
Compound CN(C)CCOC(=O)C(c1ccccc1)C1(O)CCCC1 (stereo not drawn) [Cyclopentolate hydrochloride] has a Z-score of 1.252.
CN1CCC(=C2c3ccccc3C=Cc3ccccc32)CC1 [Cyproheptadine hydrochloride] gave a Z-score of −1.6013.
With CC(=O)O[C@]1(C(C)=O)CC[C@H]2[C@@H]3C=C(Cl)C4=CC(=O)[C@@H]5C[C@@H]5[C@]4(C)[C@H]3CC[C@@]21C [Cyproterone acetate] the Z-score was −1.2528.
N[C@@H]1CONC1=O [D-cycloserine] gave a Z-score of −1.0332.
CN(C)/N=N/c1[nH]cnc1C(N)=O [Dacarbazine] was tested, and the Z-score was −0.3016.
Work on C#C[C@]1(O)CC[C@H]2[C@@H]3CCC4=Cc5oncc5C[C@]4(C)[C@H]3CC[C@@]21C [Danazol] yielded a Z-score of −1.2973.
With O=C1CN(/N=C/c2ccc(-c3ccc([N+](=O)[O-])cc3)o2)C(O)=N1 [Dantrolene sodium salt] the Z-score was −0.3347.
With Nc1ccc(S(=O)(=O)c2ccc(N)cc2)cc1 [Dapsone] the Z-score was −0.4061.
Compound COc1cccc2c1C(=O)c1c(O)c3c(c(O)c1C2=O)C[C@@](O)(C(C)=O)C[C@@H]3O[C@H]1C[C@H](N)[C@H](O)[C@H](C)O1 [Daunorubicin hydrochloride] has a Z-score of 28.7571.
N=C(N)N1CCc2ccccc2C1 [Debrisoquin sulfate] was tested, and the Z-score was 0.2228.
Work on C[N+](C)(C)CCCCCCCCCC[N+](C)(C)C [Decamethonium bromide] yielded a Z-score of −0.0864.
In the case of CC(=O)N(O)CCCCCNC(=O)CCC(=O)N(O)CCCCCNC(=O)CCC(=O)N(O)CCCCCN [Deferoxamine mesylate], the Z-score is reported as 12.8786.
In the case of C[C@H](CCC(=O)O)[C@H]1CC[C@H]2[C@@H]3C(=O)C[C@@H]4CC(=O)CC[C@]4(C)[C@H]3CC(=O)[C@]12C [Dehydrocholic acid], the Z-score is reported as −1.006.
CC(=O)O[C@H]1CC[C@@]2(C)C(=CC[C@@H]3[C@@H]2CC[C@]2(C)C(=O)CC[C@@H]32)C1 [Dehydroisoandosterone 3-acetate] gave a Z-score of −0.697.
CCN1C[C@]2(COC)CC[C@H](OC)[C@]34C5C[C@@H]6[C@@H](OC)C[C@@]7(OCO[C@@]7(C13)[C@@H](O)C24)C5[C@H]6OC (stereo partly drawn) [Delcorine] showed a Z-score of −1.4115.
CCN1C[C@]2(COC)CC[C@H](O)[C@]34C1[C@@](O)([C@@H](OC)[C@H]23)[C@@]1(O)C[C@H](OC)[C@H]2C[C@@H]4[C@@H]1[C@H]2OC [Delsoline] showed a Z-score of −1.3301.
Work on CCN1C[C@]2(C)CC[C@H](OC)[C@@]34C1[C@]1(OCO[C@@]15C[C@H](OC)[C@H]1C[C@]3(O)[C@@H]5[C@H]1OC)[C@@H](OC(C)=O)[C@H]24 [Deltaline] yielded a Z-score of −1.2966.
Compound CN(CCCCCCCCCCN(C)C(=O)Oc1cccc([N+](C)(C)C)c1)C(=O)Oc1cccc([N+](C)(C)C)c1 [Demecarium bromide] has a Z-score of −0.6009.
In the case of CN(C)[C@@H]1C(O)=C(C(N)=O)C(=O)[C@@]2(O)C(O)=C3C(=O)c4c(O)ccc(Cl)c4[C@@H](O)[C@H]3C[C@@H]12 [Demeclocycline hydrochloride], the Z-score is reported as 1.787.
Work on CC[N+](CC)(CC(=O)Nc1c(C)cccc1C)Cc1ccccc1 [Denatonium benzoate] yielded a Z-score of −0.1971.
